Among the data in ChEMBL document CHEMBL1126493, “Conformationally constrained analogues of diacylglycerol (DAG). 4. Interaction of -alkylidene--lactones with protein kinase C (PK-C)” (Bioorg Med Chem Lett, 1993) are Ki values, retold here.

The target of assay [1] is Protein kinase C alpha type (Homo sapiens, UniProt P17252). As to the kind of experiment: Inhibition of [20-3H]phorbol-12,13-dibutyrate (PDBU) binding to protein kinase C (alpha).
Assay [2] has as its target Protein kinase C, PKC; classical/novel. The experiment in a line: Inhibition of [20-3H]phorbol-12,13-dibutyrate (PDBU) binding to protein kinase C. It is filed as protein assay.

Structures are written as SMILES.

In assay [1], `CCCCCCCCCCCCCC[C@@H]1C(=O)O[C@@H](CO)[C@@H]1OC(C)=O` showed a Ki of 600 nM. `CCCCCCCCCCCCCC[C@H]1C(=O)O[C@@H](CO)[C@@H]1OC(C)=O`: the Ki in assay [2] was determined as 0.6 µM; in assay [1], 500 nM.
